Literature values in patent US6569898B2, “Use of (Z) -2-cyano-3-hydroxy-but-2-enoic acid-(4′-trifluoromethylphenyl)-amide for treating multiple sclerosis” (Aventis Pharmaceuticals Inc., priority 2001, dated 2003).

Tests used:
[1] = biological target: dihydrooate dehydrogenase (Homo sapiens, UniProt Q02127); settings: enzyme essential for the synthesis of pyrimidines
[2] = system: immune cells and cell lines

Sequence of dihydrooate dehydrogenase (Q02127 whole entry): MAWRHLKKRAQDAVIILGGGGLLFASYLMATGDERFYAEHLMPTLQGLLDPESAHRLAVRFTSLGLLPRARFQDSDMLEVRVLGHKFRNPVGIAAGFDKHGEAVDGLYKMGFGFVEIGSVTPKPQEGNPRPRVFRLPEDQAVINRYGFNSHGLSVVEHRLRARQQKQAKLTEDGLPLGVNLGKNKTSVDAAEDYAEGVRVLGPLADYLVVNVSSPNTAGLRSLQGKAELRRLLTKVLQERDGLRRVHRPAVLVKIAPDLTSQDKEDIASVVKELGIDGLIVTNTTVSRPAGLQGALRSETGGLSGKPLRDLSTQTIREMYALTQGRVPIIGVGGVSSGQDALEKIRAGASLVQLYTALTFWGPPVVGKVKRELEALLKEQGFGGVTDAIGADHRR

inhibition of the enzyme dihydrooate dehydrogenase [1]: inhibits
SMILES: C/C(O)=C(\C#N)C(=O)Nc1ccc(C(F)(F)F)cc1 [Teriflunomide, (Z)-2-cyano-3-hydroxy-but-2-enoic acid-(4′-trifluoromethylphenyl)-amide]
antiproliferative effects on a wide variety of immune cells and cell lines [2]: antiproliferative effects
